For 37 molecules, IC50 results are on record in US8324226B2, “Therapeutic oxy-phenyl-aryl compounds and their use” (Cancer Research Technology Limited, priority 2007, dated 2012).

Read-outs that look alike come from different tables or passages of the source. Where only a bound is given, the exact number is not on record here.

The target in the test is T1, CHK2 (Homo sapiens, UniProt O96017).
T1 construct: made in house
Put plainly: CHK2 kinase activity assay (DELFIA, phosphorylation of a CDC25C peptide). Type of test: biochemical. The settings on record: ATP 30 μM, CHK2 1 nM, read-out: IC50, inhibition of CHK2 kinase activity in vitro.

T1 sequence (O96017 whole entry): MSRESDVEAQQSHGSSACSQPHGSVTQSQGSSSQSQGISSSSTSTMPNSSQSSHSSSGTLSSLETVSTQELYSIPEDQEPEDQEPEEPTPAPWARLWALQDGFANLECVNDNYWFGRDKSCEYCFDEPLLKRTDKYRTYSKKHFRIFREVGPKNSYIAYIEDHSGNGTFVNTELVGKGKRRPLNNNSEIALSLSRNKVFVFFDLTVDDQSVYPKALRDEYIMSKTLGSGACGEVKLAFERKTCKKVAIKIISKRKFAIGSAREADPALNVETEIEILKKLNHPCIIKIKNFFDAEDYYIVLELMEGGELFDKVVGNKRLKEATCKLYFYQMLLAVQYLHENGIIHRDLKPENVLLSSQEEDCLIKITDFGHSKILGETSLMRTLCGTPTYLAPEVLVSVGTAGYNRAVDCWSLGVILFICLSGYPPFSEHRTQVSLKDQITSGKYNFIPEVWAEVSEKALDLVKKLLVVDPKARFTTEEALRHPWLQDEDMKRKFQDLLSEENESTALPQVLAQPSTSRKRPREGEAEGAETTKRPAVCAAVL

On to `CN(c1nc(-c2cc(Cl)ccc2O)nc2ccccc12)[C@H]1CCNC1` [Compound A-044, (S)-4-Chloro-2-(4-(methyl(pyrrolidin-3-yl)amino)quinazolin-2-yl)phenol], for which the IC50 by setting is: (first set of tested compounds) below 3000 nM; (following further studies) at most 300 nM.

Take `CN(C)C(=O)[C@H]1C[C@H](Nc2nc(-c3cc(F)ccc3O)nc3ccccc23)CN1` [Compound A-046, (2R,4S)-4-(2-(5-Fluoro-2-hydroxyphenyl)quinazolin-4-ylamino)-N,N-dimethylpyrrolidine-2-carboxamide]: the IC50 (first set of tested compounds) was below 3000 nM and the IC50 (following further studies) is at most 300 nM.

Turning to `CN(CCO)C(=O)[C@H]1C[C@H](Nc2nc(-c3ccccc3O)nc3ccccc23)CN1` [Compound A-047, (2R,4S)-N-(2-Hydroxyethyl)-4-(2-(2-hydroxyphenyl)quinazolin-4-ylamino)-N-methylpyrrolidine-2-carboxamide], the IC50 was below 3000 nM (first set of tested compounds) and 300 to 3000 nM (following further studies).

Take `CC(C)N(C)C(=O)[C@H]1C[C@H](Nc2nc(-c3ccccc3O)nc3ccccc23)CN1` [Compound A-048, (2R,4S)-4-(2-(2-Hydroxyphenyl)quinazolin-4-ylamino)-N-isopropyl-N-methylpyrrolidine-2-carboxamide]: the IC50 (first set of tested compounds) is below 3000 nM and the IC50 (following further studies) is at most 300 nM. For `O=C([C@H]1C[C@H](Nc2nc(-c3ccccc3O)nc3ccccc23)CN1)N1CCC1` [Compound A-049, Azetidin-1-yl((2R,4S)-4-(2-(2-hydroxyphenyl)quinazolin-4-ylamino)pyrrolidin-2-yl)methanone] the same measures were below 3000 nM and 300 to 3000 nM. For `CCN(C)C(=O)[C@H]1C[C@H](Nc2nc(-c3ccccc3O)nc3ccccc23)CN1` [Compound A-050, (2R,4S)-N-Ethyl-4-(2-(2-hydroxyphenyl)quinazolin-4-ylamino)-N-methylpyrrolidine-2-carboxamide] the same measures were below 3000 nM and at most 300 nM. In the case of `CCNC(=O)[C@H]1C[C@H](Nc2nc(-c3ccccc3O)nc3ccccc23)CN1` [Compound A-051, (2R,4S)-N-Ethyl-4-(2-(2-hydroxyphenyl)quinazolin-4-ylamino)pyrrolidine-2-carboxamide], the IC50 is below 3000 nM (first set of tested compounds) and 300 to 3000 nM (following further studies). For `OCC#Cc1ccc2nc(-c3ccccc3O)nc(N[C@H]3CCNC3)c2c1` [Compound A-052, (S)-2-(6-(3-hydroxyprop-1-ynyl)-4-(pyrrolidin-3-ylamino)quinazolin-2-yl)phenol] the same measures were below 3000 nM and at most 300 nM. For `OCC#Cc1ccc2c(N[C@H]3CCNC3)nc(-c3ccccc3O)nc2c1` [Compound A-054, (S)-2-(7-(3-Hydroxyprop-1-ynyl)-4-(pyrrolidin-3-ylamino)quinazolin-2-yl)phenol] the same measures were below 3000 nM and at most 300 nM. Turning to `Oc1ccc(Cl)cc1-c1nc(NC2CCCNCC2)c2ccccc2n1` (stereo not shown) [Compound A-057, 2-(4-(Azepan-4-ylamino)quinazolin-2-yl)-4-chlorophenol], where the note is “following further studies”, the IC50 was at most 300 nM. For the molecule `Oc1ccc(Cl)cc1-c1nc(NC2CCCCNC2)c2ccccc2n1` (stereo not shown) [Compound A-058, 2-(4-(Azepan-3-ylamino)quinazolin-2-yl)-4-chlorophenol], for the setting “following further studies”, the IC50 is at most 300 nM. In the case of `Oc1ccc(F)cc1-c1nc(NC2CCCCNC2)c2ccccc2n1` (stereo not shown) [Compound A-059, 2-(4-(Azepan-3-ylamino)quinazolin-2-yl)-4-fluorophenol], for the setting “following further studies”, the IC50 was at most 300 nM. The same measure, in the same setting: in the case of `Oc1ccc(F)cc1-c1nc(NC2CCCNCC2)c2ccccc2n1` (stereo not shown) [Compound A-060, 2-(4-(Azepan-4-ylamino)quinazolin-2-yl)-4-fluorophenol] it was at most 300 nM. On the same count and under the same terms, in the case of `CN(C)C(=O)[C@H]1C[C@H](Nc2nc(-c3cc(F)ccc3O)nc3cc(CCCO)ccc23)CN1` [Compound A-061, (2R,4S)-4-(2-(5-Fluoro-2-hydroxyphenyl)-7-(3-hydroxypropyl)quinazolin-4-ylamino)-N,N-dimethylpyrrolidine-2-carboxamide] it was at most 300 nM. Regarding `Oc1ccccc1-c1nc(N[C@H]2CCNC2)c2ccc(Cl)cc2n1` [Compound A-062, (S)-2-(7-Chloro-4-(pyrrolidin-3-ylamino)quinazolin-2-yl)phenol], the IC50 (following further studies) is at most 300 nM. With `O=C(O)C1(Nc2nc(-c3cc(Cl)ccc3O)nc3ccccc23)CCNC1` (stereo not shown) [Compound A-064, 3-(2-(5-Chloro-2-hydroxyphenyl)quinazolin-4-ylamino)pyrrolidine-3-carboxylic acid], where the note is “following further studies”, the IC50 lay within 3000 to 30000 nM.

For the molecule `Oc1ccccc1-c1nc(N[C@H]2CCNC2)c2ccc(-c3cn[nH]c3)cc2n1` [Compound A-065, (S)-2-(7-(1H-Pyrazol-4-yl)-4-(pyrrolidin-3-ylamino)quinazolin-2-yl)phenol], where the note is “following further studies”, the IC50 was at most 300 nM. For `Cn1cc(-c2ccc3c(N[C@H]4CCNC4)nc(-c4ccccc4O)nc3c2)cn1` [Compound A-066, (S)-2-(7-(1-Methyl-1H-pyrazol-4-yl)-4-(pyrrolidin-3-ylamino)quinazolin-2-yl)phenol], the IC50 (following further studies) is at most 300 nM. On the same count and under the same terms, next, `Oc1ccc(F)cc1-c1nc(N[C@H]2CCNC2)c2ccc(-c3cn[nH]c3)cc2n1` [Compound A-068, (S)-2-(7-(1H-Pyrazol-4-yl)-4-(pyrrolidin-3-ylamino)quinazolin-2-yl)-4-fluorophenol]: at most 300 nM; `OCCCc1ccc2c(N[C@H]3CCNC3)nc(-c3cc(F)ccc3O)nc2c1` [Compound A-071, (S)-4-Fluoro-2-(7-(3-hydroxypropyl)-4-(pyrrolidin-3-ylamino)quinazolin-2-yl)phenol]: at most 300 nM; `OCC#Cc1ccc2c(N[C@H]3CCNC3)nc(-c3cc(F)ccc3O)nc2c1` [Compound A-072, (S)-4-Fluoro-2-(7-(3-hydroxyprop-1-ynyl)-4-(pyrrolidin-3-ylamino)quinazolin-2-yl)phenol]: at most 300 nM.

With `COc1ccc2nc(-c3cc(F)ccc3O)nc(N[C@H]3CCNC3)c2c1` [Compound A-073, (S)-4-Fluoro-2-(6-methoxy-4-(pyrrolidin-3-ylamino)quinazolin-2-yl)phenol], the IC50 (following further studies) is at most 300 nM.

In the case of `COc1ccc2c(N[C@H]3CCNC3)nc(-c3cc(F)ccc3O)nc2c1` [Compound A-074, (S)-4-Fluoro-2-(7-methoxy-4-(pyrrolidin-3-ylamino)quinazolin-2-yl)phenol], the IC50 (following further studies) was at most 300 nM. The same measure, in the same setting: in the case of `COC/C=C/c1ccc2c(N[C@H]3CCNC3)nc(-c3ccccc3O)nc2c1` [Compound A-078, (S,E)-2-(7-(3-Methoxyprop-1-enyl)-4-(pyrrolidin-3-ylamino)quinazolin-2-yl)phenol] it was at most 300 nM; in that of `COCCCc1ccc2c(N[C@H]3CCNC3)nc(-c3ccccc3O)nc2c1` [Compound A-079, (S)-2-(7-(3-Methoxypropyl)-4-(pyrrolidin-3-ylamino)quinazolin-2-yl)phenol], at most 300 nM. On the same count and under the same terms, in the case of `COc1ccc2c(N[C@@H]3CN[C@@H](CO)C3)nc(-c3cc(F)ccc3O)nc2c1` [Compound A-087, 4-Fluoro-2-(4-((3S,5R)-5-(hydroxymethyl)pyrrolidin-3-ylamino)-7-methoxyquinazolin-2-yl)phenol] it was at most 300 nM; in that of `CC(C)(O)C#Cc1ccc2c(N[C@H]3CCNC3)nc(-c3cc(F)ccc3O)nc2c1` [Compound A-093, (S)-4-Fluoro-2-(7-(3-hydroxy-3-methylbut-1-ynyl)-4-(pyrrolidin-3-ylamino)quinazolin-2-yl)phenol], at most 300 nM; in that of `COCCOc1ccc2nc(-c3cc(F)ccc3O)nc(N[C@H]3CCNC3)c2c1` [Compound A-095, (S)-4-Fluoro-2-(6-(2-methoxyethoxy)-4-(pyrrolidin-3-ylamino)quinazolin-2-yl)phenol], at most 300 nM.

With `CC(C)(O)CCc1ccc2c(N[C@H]3CCNC3)nc(-c3cc(F)ccc3O)nc2c1` [Compound A-097, (S)-4-Fluoro-2-(7-(3-hydroxy-3-methylbutyl)-4-(pyrrolidin-3-ylamino)quinazolin-2-yl)phenol], the IC50 (following further studies) was at most 300 nM. Same read-out and setting: next, `Oc1ccc(-c2ccc(F)cc2)cc1-c1nc(N[C@H]2CCNC2)c2ccccc2n1` [Compound A-100, (S)-4′-Fluoro-3-(4-(pyrrolidin-3-ylamino)quinazolin-2-yl)biphenyl-4-ol]: 3000 to 30000 nM; `NC(=O)c1ccc(-c2ccc(O)c(-c3nc(N[C@H]4CCNC4)c4ccccc4n3)c2)cc1` [Compound A-101, (S)-4′-Hydroxy-3′-(4-(pyrrolidin-3-ylamino)quinazolin-2-yl)biphenyl-4-carboxamide]: 3000 to 30000 nM. Still for that read-out and setting: next, `CC(C)(O)CCc1ccc2nc(-c3cc(F)ccc3O)nc(N[C@H]3CCNC3)c2c1` [Compound A-102, (S)-4-Fluoro-2-(6-(3-hydroxy-3-methylbutyl)-4-(pyrrolidin-3-ylamino)quinazolin-2-yl)phenol]: at most 300 nM; `COCCOc1cc2c(N[C@H]3CCNC3)nc(-c3cc(F)ccc3O)nc2cc1OC` [Compound A-103, (S)-4-Fluoro-2-(7-methoxy-6-(2-methoxyethoxy)-4-(pyrrolidin-3-ylamino)quinazolin-2-yl)phenol]: at most 300 nM.

For the molecule `COCCOc1cc2nc(-c3cc(F)ccc3O)nc(N[C@H]3CCNC3)c2cc1OCCOC` [Compound A-104, (S)-2-(6,7-bis(2-Methoxyethoxy)-4-(pyrrolidin-3-ylamino)quinazolin-2-yl)-4-fluorophenol], the IC50 (following further studies) was at most 300 nM. Same read-out and setting: next, `Oc1ccc(-c2cccc(F)c2)cc1-c1nc(N[C@H]2CCNC2)c2ccccc2n1` [Compound A-107, (S)-3′-Fluoro-3-(4-(pyrrolidin-3-ylamino)quinazolin-2-yl)biphenyl-4-ol]: 300 to 3000 nM. For the molecule `Oc1ccc(-c2ccsc2)cc1-c1nc(N[C@H]2CCNC2)c2ccccc2n1` [Compound A-108, (S)-2-(4-(Pyrrolidin-3-ylamino)quinazolin-2-yl)-4-(thiophen-3-yl)phenol], for the setting “following further studies”, the half-maximal inhibitory concentration (IC50) fell in the range of 300 to 3000 nM. The same measure, in the same setting: next, `CC(C)(O)C#Cc1ccc2nc(-c3cc(F)ccc3O)nc(N[C@H]3CCNC3)c2c1` [Compound A-109, (S)-4-Fluoro-2-(6-(3-hydroxy-3-methylbut-1-ynyl)-4-(pyrrolidin-3-ylamino)quinazolin-2-yl)phenol]: 300 to 3000 nM.
